The values that follow come from patent US5594030A, “Controlled release pharmaceutical compositions based on one or more pharmaceutically acceptable salts of gamma hydroxy-butyric acid” (Laboratorio Farmaceutico C.T. S.r.l., priority 1993, dated 1997).

For orientation: MRT means a mean duration of stay, worked out from the concentration-time curve. Usually fraction unbound stands for free concentration divided by total concentration.

The nature of data set [1]: GHB average pharmacokinetic parameters after oral administration of different doses (immediate release) to 8 healthy volunteers. The format is in vivo, human (healthy volunteers). As to conditions: for Tmax / CL/F / MRT / half-life: human, plasma; for CL/F: read-out: CLo (oral clearance); for MRT: read-out: MRT (average residence time) (converted); for AUC: average (SD); for absorption: result in words, immediate release / aqueous liquid solutions. From the text:
GHB Average pharmacokinetic parameters after
administration of different doses to 8 healthy volunteers

A short description of data set [2]: fraction of unbound drug (dialysis). The format is in vitro ADME. As to conditions: predialysis concentration of 25 μg/ml; read-out: fu (fraction of unbound drug). On the procedure: ^c determined at a predialysis concentration of 25 μg/ml
peak, tmax absorption time to the peak, fu fraction of unbound

Data set [3] is described as follows: In vitro dissolution test (paddle test). The format is physicochemical. The note with it: aqueous liquid solutions / formulations on the market; instantaneous. The procedure: The evaluation test in vitro is carried out with a dissolution test consistent with the apparatus described in the European Pharmacopoeia 2° ed. or UPS XXII ed. ("paddle test"). The dosage, evaluated in the time after 1, 2, 3, 4, 6 and 8 hours, is carried out with 1N hydrochloric acid, taking a known amount from the dissolution medium.
medium: distilled H20 900 ml.
Data obtained are the following (expressed as GHBNa percentage with respect to the total tablet content): […]

Data set [4] concerns enzymes having the --SH group. As to conditions: result in words; cited from earlier work.
The conditions of data set [5]: cited from earlier work.
Where [6] appears, read: oral 25 mg/kg, normalized at 12.5 mg/kg.
Setting [7] is: oral 50 mg/kg, normalized at 12.5 mg/kg.

Counter-ions that a name gives are not always drawn. Like-named read-outs stand apart in the source and are kept apart here.

As for `O=C(O)CCCO` [GHB, gamma hydroxy butyric acid], the Tmax in data set [1] (oral 12.5 mg/kg, average value (range), read-out: tmax (absorption time to the peak) (converted)) was 25 min; in data set [1] (oral 25 mg/kg, average value (range), read-out: tmax (absorption time to the peak) (converted)) it was 30 min; in data set [1] (oral 50 mg/kg, average value (range), read-out: tmax (absorption time to the peak) (converted)), 45 min. The figures for the CL/F in data set [1] (oral 12.5 mg/kg), in data set [1] (oral 25 mg/kg) and in data set [1] (oral 50 mg/kg) were 14 mL/min/kg, 9 mL/min/kg and 7 mL/min/kg, respectively. The MRT in data set [1] (oral 12.5 mg/kg) is 45 min; in data set [1] (oral 25 mg/kg), 53 min; in data set [1] (oral 50 mg/kg) it was 70 min. The half-life is 20 min in data set [1] (oral 12.5 mg/kg, read-out: t^1/2 z (final halflife time)); 22 min in data set [1] (oral 25 mg/kg, read-out: t^1/2 z (final halflife time)); 23 min in data set [1] (oral 50 mg/kg, read-out: t^1/2 z (final halflife time)). Further, the Cmax is on record as 23 (9) μg/ml in data set [1] (oral 12.5 mg/kg), 23 (11) μg/ml in data set [1] (setting [6]) and 20 (7) μg/ml in data set [1] (setting [7]). Besides, the AUC in data set [1] (oral 12.5 mg/kg, 8 healthy volunteers) is recorded as 905 (443) μg/ml min; in data set [1] (setting [6]) it was 1271 (560) μg/ml min; in data set [1] (setting [7]) it was 1565 (548) μg/ml min. In data set [2], the fraction unbound was determined as 0.99.
In the case of `O=C(O)CCCO` [GHBNa, sodium salt of gamma hydroxy butyric acid], in data set [1] (po, about, summary of table 1 and FIG. 1, read-out: maximum peak after the administration), the Tmax lay within 30 to 45 min. Besides, the half-life in data set [1] (po, summary of table 1 and FIG. 1, read-out: half life) lay in the range of 20 to 25 min. The absorption entry is on record as “rapidly absorbed” in data set [1] and “absorbed quickly” in data set [1] (listed as sodium gamma hydroxy butyrate). The compound also returned an elimination time in data set [1] (summary of table 1 and FIG. 1) of 4 to 5 h. The “release of the active substance” value in data set [3] came to 100%.
As to `CCN(CC)C(=S)SSC(=S)N(CC)CC` [Disulfiram], in data set [4], the enzyme inhibition entry is listed as “alters the activity of all enzymes having the --SH group”. Besides, in data set [5] (Disulfiram by itself, therapeutical doses), the toxicity entry was “scarcely toxic”. Besides, the “blood acetaldehyde concentration vs alcohol dose alone” value in data set [5] (alcohol administered after Disulfiram pretreatment) is recorded as “five to ten times higher”. In addition, the severe events occurred entry in data set [5] (as a consequence of Disulfiram treatment) was “depression, myocardial infarction, sudden and unexplained fatalities”. Besides, the “side effects (may cause)” value in data set [5] (in vivo) was “acneiform eruptions, allergic dermatitis, urticaria, lassitude, fatigue, tremor, restlessnes, reduced sexual potency, gastric or digestive disturbances”.
